# Source: patent publication US9415096B2 (priority 2007, dated 2016)
# Ends that are not written are not given here.
# What was measured:
# PK-8 cells = experiment: Cytotoxicity test (chromium release assay) of peptide-induced killer T cells against PK-8; conditions: killer T cells from breast cancer patients induced with the peptide; PK-8 HLA-A2 negative, FOXM1 positive
# panc-1 cells = experiment: Cytotoxicity test (chromium release assay) of peptide-induced killer T cells against panc-1; conditions: for HLA-A2 restricted and FOXM1-specific cytotoxic activity of induced killer T cells: chromium release assay, panc-1 (HLA-A2 positive) versus PK-8 (HLA-A2 negative); for cytotoxic activity against panc-1 cells: killer T cells from breast cancer patients induced with the peptide, panc-1 HLA-A2 positive, FOXM1-expressing
Sequence,cytotoxic activity against PK-8 cells (PK-8 cells),HLA-A2 restricted and FOXM1-specific cytotoxic activity of induced killer T cells (panc-1 cells),cytotoxic activity against panc-1 cells (panc-1 cells)
"GLMDLSTTPL [FOXM1 640-649, GLMDLSTTPL]",did not show cytotoxic activity,HLA-A2 restricted and FOXM1-specific cytotoxic activity was observed,strong cytotoxic activity
"SLVLQPSVKV [FOXM1 373-382, SLVLQPSVKV]",did not show cytotoxic activity,HLA-A2 restricted and FOXM1-specific cytotoxic activity was observed,strong cytotoxic activity
"YLVPIQFPV [FOXM1 362-370, YLVPIQFPV]",did not show cytotoxic activity,HLA-A2 restricted and FOXM1-specific cytotoxic activity was observed,strong cytotoxic activity
